From patent US20250051355A1, “COMPOUNDS, COMPOSITIONS, AND METHODS” (ACONCAGUA BIO, INC., priority 2023, published 2025) come the findings set out here.

For experiment [1], the target named is human calcitonin receptor (CTR) and RAMP3 (AMY3) (Homo sapiens, UniProt O60896+P30988). The experiment in a line: Amylin Receptor cAMP Assay I. Particulars: COS-7/AMY3 cells, cAMP Hi-range Kit, read-out: Amylin Receptor cAMP Stimulation Activity: EC50. It is filed as cell-based. The procedure, abridged: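 COS-7 cells stably co-expressing human CTR and RAMP3, 1000 cells/well, exposed to 4-fold serially diluted compound in DPBS with 0.5 mM IBMX and 0.1% BSA for 30 min at 37° C. cAMP accumulation measured by HTRF (cAMP-d2 plus anti-cAMP cryptate, 1 h room temperature), read at 665/615 nm.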
Chain of human calcitonin receptor (CTR) and RAMP3 (AMY3) (O60896 24-148, one chain of several): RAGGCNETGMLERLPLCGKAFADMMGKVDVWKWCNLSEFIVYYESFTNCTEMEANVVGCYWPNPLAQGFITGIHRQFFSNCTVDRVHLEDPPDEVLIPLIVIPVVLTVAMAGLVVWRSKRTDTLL

Experiment [2] concerns the target T1, human calcitonin receptor (CTR) (Homo sapiens, UniProt P30988).
T1 construct: expressed in transfected cells; host or cells: COS-7 (COS7-human CTR Clone #2)
T1 sequence (P30988 25-474): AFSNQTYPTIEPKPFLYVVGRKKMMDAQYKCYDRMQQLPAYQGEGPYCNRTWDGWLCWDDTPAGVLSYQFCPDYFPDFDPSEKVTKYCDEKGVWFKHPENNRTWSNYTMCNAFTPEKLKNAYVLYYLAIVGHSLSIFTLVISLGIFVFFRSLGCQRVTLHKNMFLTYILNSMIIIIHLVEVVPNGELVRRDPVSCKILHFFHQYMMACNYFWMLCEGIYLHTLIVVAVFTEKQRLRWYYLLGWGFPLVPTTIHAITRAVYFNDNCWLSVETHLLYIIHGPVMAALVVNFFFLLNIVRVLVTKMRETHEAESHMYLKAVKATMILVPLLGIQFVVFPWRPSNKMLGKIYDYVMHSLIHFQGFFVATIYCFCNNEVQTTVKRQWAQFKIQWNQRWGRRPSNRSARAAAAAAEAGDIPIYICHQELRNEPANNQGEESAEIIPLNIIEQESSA
The experiment in a line: Calcitonin receptor (CTR) cAMP Assay. The class given is cell-based. Particulars: COS7-human CTR Clone #2 cells, cAMP dynamic 2 kit; read-out: Calcitonin Receptor cAMP Stimulation Activity: EC50. The procedure, abridged: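 COS-7 cells stably expressing human CTR (2000 cells/well) treated with 4-fold serially diluted compounds in HBSS/20 mM HEPES/0.5 mM IBMX/0.1% casein, 30 min at 37° C. cAMP quantified by HTRF (cAMP-d2 plus anti-cAMP cryptate, 1 h RT), fluorescence read at 665 and 615 nm.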

Each structure is given as a SMILES string.

Turning to `Cc1nnc(-c2c(CCC3CCCOC3)nc3c(c2-c2ccc(C(=O)NCc4ccc(F)c(F)c4)s2)C(=O)N2CCC[C@@H]32)o1` (stereo partly drawn) [Compound 61, N-(3,4-difluorobenzyl)-5-((9aS)-3-(5-methyl-1,3,4-oxadiazol-2-yl)-5-oxo-2-(2-(tetrahydro-2H-pyran-3-yl)ethyl)-7,8,9,9a-tetrahydro-5H-pyrido[2,3-a]pyrrolizin-4-yl)thiophene-2-carboxamide], the EC50 in experiment [1] was found to be 0.178 µM; in experiment [2], 0.039 µM.
For the compound `Cc1nnc(-c2c(CCC3CCOCC3)nc3c(c2-c2cc4ccnc(NCc5ccc(F)c(F)c5)c4s2)C(=O)N2CCC[C@@H]32)o1` [Compound 63], the EC50 was determined as 0.0785 µM in experiment [1] and 0.0028 µM in experiment [2].
As to `Cc1nnc(-c2c(CCC3CCOCC3)nc3c(c2-c2cc4ccnc(NCc5cccc(F)c5)c4s2)C(=O)N2CCC[C@@H]32)o1` [Compound 70], the results for the half-maximal effective concentration (EC50) in experiment [1] and in experiment [2] were 0.811 µM and 0.045 µM, respectively.

One may read the EC50 as the concentration needed to bring the measured effect to its halfway point.
